We go through nine molecules from patent US9617256B2 (priority 2007, dated 2017).

In brackets after ≈: the same amount, converted by molar mass.

Assay [1] relates to APAE006 in the presence of 8 micrograms per milliliter of polymyxin B nonapeptide. In kind it is cell-based, P. aeruginosa. The note with it: in the presence of 8 micrograms per milliliter of polymyxin B nonapeptide. The essentials: (§1)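 Inocula prepared from 0.5 McFarland suspensions (final 3×10^5–7×10^5 CFU/mL) were added to 2-fold drug dilution series in cation-adjusted Mueller-Hinton broth. Plates stood 18-24 hours at 35° C. under ambient air.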

Assay [2] deals with AECO063 (ATCC25922 bearing an acrAB mutation). Briefly: microbe, parasite or virus in culture. In kind it is cell-based, E. coli. The following applies: Escherichia coli, ATCC25922, read-out: MIC AECO063. In a few lines:
(§2)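 Growth inhibition was scored by CLSI broth microdilution using cation-adjusted Mueller-Hinton broth and a final inoculum between 3×10^5 and 7×10^5 CFU/mL, incubated 18-24 hours at 35° C.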

In assay [3] the test system is APAE006 (strain of P. aeruginosa in which all efflux pumps are inactivated). Briefly: microbe, parasite or virus in culture. In kind it is cell-based. The note with it: Pseudomonas aeruginosa, read-out: MIC APAE006, P. aeruginosa, all efflux pumps inactivated. The essentials: as §1
The next assay relates to AECO001 (ATCC25922). The assay is described as follows: MIC broth microdilution, AECO001. In kind it is cell-based, E. coli. The note with it: Escherichia coli, ATCC25922, read-out: MIC AECO001. The essentials:
as §2
On the technique in general: Broth dilution looks for growth in wells or tubes with falling amounts of substance.

The test system of assay [4] is ASAU001 (laboratory strain of S. aureus, ATCC29213). Briefly: MIC broth microdilution, ASAU001. In kind it is cell-based. The note with it: Staphylococcus aureus, ATCC29213, read-out: MIC ASAU001. In a few lines:
as §2

A further assay relates to AECO001 HSA AGP. The assay is described as follows: MIC broth microdilution, AECO001 HSA AGP. The following applies: Escherichia coli. In kind it is cell-based, E. coli. In a few lines: as §2
The next assay relates to APAE001 (ATCC27853). The assay is described as follows: MIC broth microdilution, APAE001. The note with it: Pseudomonas aeruginosa, ATCC27853, read-out: MIC APAE001, APAE001 is ATCC27853. In kind it is cell-based, P. aeruginosa. In a few lines: as §2
For assay [5], the system named is AABA1060 (clinical isolate of Acinetobacter baumannii). The assay is described as follows: MIC broth microdilution, AABA1060. In kind it is cell-based. The note with it: Acinetobacter baumannii, read-out: MIC AABA1060. In a few lines: as §2

On to `C[C@@H](N)[C@H](NC(=O)c1ccc(C#Cc2ccc(CNCCC#N)cc2)cc1)C(=O)NO` [Example 118-8], for which the “MIC APAE006 + PMBN” value in assay [1] is “A (MIC's of 2.0 μg/mL or less = A)”. The MIC in assay [2] is under 2 µg/mL; in assay [3] it was under 2 µg/mL; in the assay on AECO001 (ATCC25922), under 2 µg/mL; in assay [4], 16 to 64 µg/mL (≈ 38.1 to 153 µM); against AECO001 HSA AGP, 2 to 16 µg/mL (≈ 4.77 to 38.1 µM); with APAE001 (ATCC27853) it was under 2 µg/mL. Further, the MIC in assay [5] lay in the range of 2 to 16 µg/mL (≈ 4.77 to 38.1 µM).
For `CN(C)CC(=O)NC[C@H](NC(=O)c1ccc(/C=C/C#Cc2ccc(CN3CCOCC3)cc2)cc1)C(=O)NO` [Example 111-2], the “MIC APAE006 + PMBN” value in assay [1] is recorded as “A (MIC's of 2.0 μg/mL or less = A)”. In addition, the MIC was under 2 µg/mL in assay [2]; under 2 µg/mL in assay [3]; 2 to 16 µg/mL (≈ 3.75 to 30 µM) in the assay on AECO001 (ATCC25922); 16 to 64 µg/mL (≈ 30 to 120 µM) in assay [4]; 2 to 16 µg/mL (≈ 3.75 to 30 µM) in the assay with AECO001 HSA AGP; 2 to 16 µg/mL (≈ 3.75 to 30 µM) in the assay on APAE001 (ATCC27853). Besides, the MIC in assay [5] was 2 to 16 µg/mL (≈ 3.75 to 30 µM).
Turning to `C[C@H](O)[C@H](NC(=O)c1ccc(C#C/C=C/c2ccc(CNC3CC3)cc2)cc1)C(=O)NO` [Example 102-4], the “MIC APAE006 + PMBN” value in assay [1] is reported as “A (MIC's of 2.0 μg/mL or less = A)”. The MIC in assay [2] is under 2 µg/mL; in assay [3] it was under 2 µg/mL; in the assay with AECO001 (ATCC25922), under 2 µg/mL; in assay [4] it was over 64 µg/mL; against AECO001 HSA AGP, 2 to 16 µg/mL (≈ 4.61 to 36.9 µM); in the assay with APAE001 (ATCC27853) it was 2 to 16 µg/mL (≈ 4.61 to 36.9 µM). Further, in assay [5], the MIC lay in the range of 16 to 64 µg/mL (≈ 36.9 to 148 µM).
For `C[C@@H](N)[C@H](NC(=O)c1ccc(C#CC#Cc2ccc(CNC3CC3)cc2)cc1)C(=O)NO` [Example 86-3], the “MIC APAE006 + PMBN” value in assay [1] is recorded as “A (MIC's of 2.0 μg/mL or less = A)”. For the same molecule, the MIC in assay [2] is under 2 µg/mL; in assay [3] it was under 2 µg/mL; with AECO001 (ATCC25922), under 2 µg/mL; in assay [4], 16 to 64 µg/mL (≈ 37.2 to 149 µM); in the assay on AECO001 HSA AGP, under 2 µg/mL; in the assay with APAE001 (ATCC27853) it was under 2 µg/mL. Besides, the MIC in assay [5] lay within 2 to 16 µg/mL (≈ 4.65 to 37.2 µM).
In the case of `C[C@@H](O)[C@H](NC(=O)c1ccc(N2CCC(c3ccc(CN4CCOCC4)cc3)CC2)cc1)C(=O)NO` [Example 42-7, N-((1S,2R)-2-Hydroxy-1-hydroxycarbamoyl-propyl)-4-[4-(4-morpholin-4-ylmethyl-phenyl)-piperidin-1-yl]-benzamide], in assay [1], the “MIC APAE006 + PMBN” value is “A (MIC's of 2.0 μg/mL or less = A)”. In addition, the MIC in assay [2] was 16 to 64 µg/mL (≈ 32.2 to 129 µM); in assay [3] it was under 2 µg/mL; in the assay on AECO001 (ATCC25922) it was 16 to 64 µg/mL (≈ 32.2 to 129 µM); in assay [4], over 64 µg/mL; against AECO001 HSA AGP it was 16 to 64 µg/mL (≈ 32.2 to 129 µM); in the assay on APAE001 (ATCC27853), 16 to 64 µg/mL (≈ 32.2 to 129 µM). The MIC in assay [5] is 16 to 64 µg/mL (≈ 32.2 to 129 µM).
Turning to `C[C@@H](N)[C@H](NC(=O)c1ccc(C#C/C=C/c2ccc(CN3CCOCC3)cc2)cc1)C(=O)NO` [Example 96-4], the “MIC APAE006 + PMBN” value in assay [1] is listed as “A (MIC's of 2.0 μg/mL or less = A)”. The MIC in assay [2] is under 2 µg/mL; in assay [3], under 2 µg/mL; with AECO001 (ATCC25922) it was under 2 µg/mL; in assay [4] it was over 64 µg/mL; in the assay on AECO001 HSA AGP it was 2 to 16 µg/mL (≈ 4.32 to 34.6 µM); in the assay with APAE001 (ATCC27853), 2 to 16 µg/mL (≈ 4.32 to 34.6 µM). Also, the MIC in assay [5] is 2 to 16 µg/mL (≈ 4.32 to 34.6 µM).
Consider `C[C@@H](N)[C@H](NC(=O)c1ccc(C#CC#Cc2ccc(Cl)cc2)cc1)C(=O)NO` [Example 82-8], for which, in assay [1], the “MIC APAE006 + PMBN” value is “A (MIC's of 2.0 μg/mL or less = A)”. Also, the MIC in assay [2] is under 2 µg/mL; in assay [3] it was under 2 µg/mL; with AECO001 (ATCC25922) it was under 2 µg/mL; in assay [4], over 64 µg/mL; with AECO001 HSA AGP, 2 to 16 µg/mL (≈ 5.05 to 40.4 µM); in the assay with APAE001 (ATCC27853), 16 to 64 µg/mL (≈ 40.4 to 162 µM). The MIC in assay [5] is over 64 µg/mL.
As to `CC(=O)NC[C@H](NC(=O)c1ccc(/C=C/C#Cc2ccc(CN3CCOCC3)cc2)cc1)C(=O)NO` [Example 111-3, N-[2-acetylamino-1-((S)-hydroxycarbamoyl)-ethyl]-4-[(E)-4-(4-morpholin-4-ylmethyl-phenyl)-but-1-en-3-ynyl]-], in assay [1], the “MIC APAE006 + PMBN” value is recorded as “A (MIC's of 2.0 μg/mL or less = A)”. For the same molecule, the MIC was under 2 µg/mL in assay [2]; under 2 µg/mL in assay [3]; under 2 µg/mL in the assay on AECO001 (ATCC25922); over 64 µg/mL in assay [4]; 2 to 16 µg/mL (≈ 4.08 to 32.6 µM) against AECO001 HSA AGP; 2 to 16 µg/mL (≈ 4.08 to 32.6 µM) in the assay with APAE001 (ATCC27853). Besides, the MIC in assay [5] fell in the range of 2 to 16 µg/mL (≈ 4.08 to 32.6 µM).
Turning to `NC[C@H](NC(=O)c1ccc(C#CC#Cc2ccc(CO)cc2)cc1)C(=O)NO` [Example 82-2], the “MIC APAE006 + PMBN” value in assay [1] is on record as “A (MIC's of 2.0 μg/mL or less = A)”. The MIC in assay [2] was under 2 µg/mL; in assay [3], under 2 µg/mL; with AECO001 (ATCC25922), under 2 µg/mL; in assay [4], 16 to 64 µg/mL (≈ 42.4 to 170 µM); with AECO001 HSA AGP, 16 to 64 µg/mL (≈ 42.4 to 170 µM); with APAE001 (ATCC27853), under 2 µg/mL. Besides, the MIC in assay [5] was in the range of 16 to 64 µg/mL (≈ 42.4 to 170 µM).
